# Measured values reported in publication PMC4959957 (British Journal of Pharmacology, 2016).
# Target: T1, Asu-ACR-16 (Ascaris suum, UniProt A0A0K0QSL7)
# T1 sequence (A0A0K0QSL7 24-504): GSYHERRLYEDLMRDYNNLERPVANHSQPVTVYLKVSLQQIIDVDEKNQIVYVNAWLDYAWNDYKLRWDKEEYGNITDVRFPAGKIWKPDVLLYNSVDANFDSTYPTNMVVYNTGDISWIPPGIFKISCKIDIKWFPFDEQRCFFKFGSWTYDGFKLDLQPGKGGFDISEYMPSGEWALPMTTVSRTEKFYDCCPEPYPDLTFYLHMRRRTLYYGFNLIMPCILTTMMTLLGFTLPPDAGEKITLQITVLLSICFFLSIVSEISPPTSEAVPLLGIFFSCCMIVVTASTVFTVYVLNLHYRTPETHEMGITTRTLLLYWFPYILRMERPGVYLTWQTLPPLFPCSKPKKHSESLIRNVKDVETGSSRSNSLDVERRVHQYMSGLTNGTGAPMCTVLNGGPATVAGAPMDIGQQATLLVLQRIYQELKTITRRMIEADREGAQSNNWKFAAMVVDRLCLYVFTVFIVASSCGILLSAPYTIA
# Assay: two-electrode voltage clamp, agonist concentration-response in Xenopus oocytes
# Assay type: cell-based
row,SMILES,EC50 [µM]
1,"CN1CCC[C@H]1c1cccnc1 [nic, nicotine]",4.5 ± 0.2
2,CC(=O)OCC[N+](C)(C)C [ACh],5.9 ± 0.1
